Assay results taken from patent US12090153B2, “Combination therapy for the treatment of uveal melanoma” (The Board of Trustees of the University of Illinois, priority 2018, dated 2024).

Experiments:
[1] = tested on: 92.1; experiment: PAC-1 single agent IC50 in uveal melanoma cell line, 72-hour incubation; type: cell-based; settings: 92.1, GNAQ Mutant Q209L, error s.e.m.
Text: (§1) UM cell lines express procaspase-3 (FIG. 1), and PAC-1 has activity as a single agent in a panel of UM cell lines (Table D). [table]

[2] = tested on: MEL202; experiment: as above; type: cell-based; settings: MEL202, GNAQ Mutant Q209L, R210K, error s.e.m.
Text: as §1

[3] = tested on: MEL270; experiment: as above; type: cell-based; settings: MEL270, GNAQ Mutant Q209P, error s.e.m.
Text: as §1

[4] = tested on: MEL285; experiment: as above; type: cell-based; settings: MEL285, GNAQ/11 WT, error s.e.m.
Text: as §1

[5] = tested on: MEL290; experiment: as above; type: cell-based; settings: MEL290, GNAQ/11 WT, error s.e.m.
Text: as §1

[6] = tested on: OMM1; experiment: as above; type: cell-based; settings: OMM-1, OMM1, GNA11 Mutant Q209L, error s.e.m.
Text: as §1

[7] = tested on: OMM2.5; experiment: as above; type: cell-based; settings: OMM2.5, GNAQ Mutant Q209P, error s.e.m.
Text: as §1

[8] = tested on: UM cell line MEL270; experiment: Screen of PAC-1 in combination with kinase inhibitors, percent cell death; type: cell-based; settings: MEL270, 72-hour incubation, single agents and combination at the same concentrations (FIG. 2)
Text: FIG. 2. […] These three types of fusion proteins are key driver alterations in multiple cancer types.

[9] = PAC-1 clinical study in human patients, safety; type: in vivo
Protocol: PAC-1 has been dosed in 34 human patients through 7 dose levels of PAC-1 (range: 75-750 mg). Two patients progressed during the first cycle of PAC-1 therapy. Thirty-two patients received PAC-1 for at least 2 dosing cycles (a cycle is 21 days of daily dosing followed by 7 days of no drug). As a result of stable disease responses, six patients received PAC-1 for 4 cycles, three patients received PAC-1 for 6 cycles and two patients received PAC-1 for 10 cycles.

[10] = GLP dog PK/preclinical PAC-1 toxicity studies; type: in vivo
[11] = cited from earlier work
[12] = tested on: ROS1-rearranged lung cancers; settings: cited from earlier work

SMILES | IC50 [1] | IC50 [2] | IC50 [3] | IC50 [4] | IC50 [5] | IC50 [6] | IC50 [7] | Percent cell death [8] | serious adverse events (SAEs) associated with PAC-1 administration ([9]; 34 human patients, 7 dose levels, 75-750 mg) | neurotoxicity associated with PAC-1 dosing ([9]; neurological and neurocognitive assessments through dose level 7 (750 mg)) | Brain tissue findings [10] | treatment-related adverse events of any grade: myalgias ([11]; n=27/119) | treatment-related adverse events of any grade: nausea ([11]; n=33/119) | treatment-related adverse events of any grade: paresthesias ([11]; n=34/119) | treatment-related adverse events of any grade: dysgeusia ([11]; n=50/119) | treatment-related adverse events of any grade: fatigue/asthenia ([11]; n=55/119) | Disease control and progression-free survival [12]
C=CCc1cccc(/C=N/NC(=O)CN2CCN(Cc3ccccc3)CC2)c1O [PAC-1] | 3.6 ± 0.7 µM | 10.3 ± 0.2 µM | 9.8 ± 0.6 µM | 7.4 ± 2.6 µM | 11.7 ± 1.2 µM | 4 ± 0.8 µM | 9.5 ± 0.5 µM | ~16% | No serious adverse events | no conclusive signs of neurotoxicity | brain tissue changes observed | – | – | – | – | – | –
CN1CCN(c2ccc(C(=O)Nc3n[nH]c4ccc(Cc5cc(F)cc(F)c5)cc34)c(NC3CCOCC3)c2)CC1 [entrectinib] | – | – | – | – | – | – | – | ~16% | – | – | – | 23% | 28% | 29% | 42% | 46% | durable disease control and prolonged progression-free survival
